Literature values, collected in patent publication US20230225968A1, “PROCESS FOR PRODUCING VISIBLY CLEAR AQUEOUS CONSUMABLE PRODUCTS” (CHAVAN, Neha, priority 2020, published 2023).

Conditions: oil-based delivery systems; humans

In the case of `C=C(C)[C@@H]1CCC(C)=C[C@H]1c1c(O)cc(CCCCC)cc1O` [CBD, cannabidiol], the “total CBD absorbed” value is listed as 4%.
